Data reported in US3932650A, “Trans-octahydropyridoindolobenzazepines as central nervous system depressants” (E. I. Du Pont de Nemours & Company, priority 1973, dated 1976).
Read-outs that look alike come from different tables or passages of the source.

Experiments:
[1] = tested on: locomotor activity; test: Decreased Locomotor Activity (L.M.A.), rat; assay type: in vivo; conditions: po; minimal effective dose; read-out: L.M.A. MED
Procedure: (§1) Decreased Locomotor Activity (L.M.A.)
(§2) This reaction sign is measured subjectively by observing how an animal behaves when it is removed from an observation cage and placed on a table top. […] The degree of stimulation by the observer needed to produce active locomotion is rated on an arbitrary scale. This ranges from a score of -1 where only a slight touch of the animal's body is required to a -4 where the animal is unresponsive or minimally responsive to the application of a pain stimulus (pressure at the base of the tail). The minimal effective dose (MED) is the lowest oral dose producting an obvious decrease of locomotor activity (with a score of at least -1). Groups of 3 mice are given decreasing oral doses at 0.5 log intervals (300, 100, 30. . .etc.) until no behavioral effects are evident. Decrease of locomotor activity is indicative of general central nervous system depressant activity.

[2] = tested on: taming; test: Rhesus Monkey Taming Effects; assay type: in vivo; conditions: Macaca mulatta; rhesus monkey, po; read-out: Taming MED
Procedure: Rhesus Monkey Taming Effects (Taming):
Results given in: mg/kg po/monkey
Compounds are administered orally to groups of 6 rhesus monkeys. The behavior of the animals is then evaluated by observational means. Taming effects are determined by the ability of the observer to approach and touch the monkey. Compounds with major tranquilizer activity in man can produce a state of passive tameness in the rhesus monkey wherein it can be touched without provoking any of the threatening or aggressive behavior seen in the normal animal. The MED is the minimal oral dose at which some taming effect can be observed.

[3] = tested on: conditioned avoidance response; test: Dog Conditioned Avoidance Response (C.A.R.); assay type: in vivo; conditions: Canis lupus familiaris; dog, po; 5 or more incorrect responses in 50% of animals; 1, 2, and 4 hours; read-out: C.A.R. ED50
Procedure: Dog Conditioned Avoidance Response (C.A.R.):
Results given in: mg/kg po/dog
Dogs are trained to raise a forelimb when presented with a conditioned stimulus (light) in order to avoid an electric shock. Blocks of 10 trials are given to groups of 4 dogs during a pretreatment period and at 1, 2, and 4 hours after oral administration of the test compound. The ED50 values are calculated as the dose causing 50% of the animals to show 5 or more incorrect responses. Blocking of the C.A.R. at non-toxic doses appears to correlate with major tranquilizer activity in man.

[4] = tested on: conditioned avoidance response; test: Conditioned Avoidance Response (C.A.R.), rat; assay type: in vivo; conditions: rat, po; block of C.A.R. in 50% of animals; 1, 2, and 4 hours; read-out: C.A.R. ED50
Procedure: (§3) Mouse and Rat Conditioned Avoidance Response (C.A.R.):
(§4) Mice and rats are trained to jump out of a pit onto a ledge to avoid shock when presented with a light and sound conditioned stimulus. The animals are tested 1, 2, and 4 hours after administration of the test compound. Three to four dose levels and groups of 4-8 animals/dose are used. The ED50 is the dose producing a block of the C.A.R. in 50% of the animals. Blocking of the C.A.R. at non-toxic doses appears to correlate with major tranquilizer activity in man.

[5] = tested on: eyelid closure (ptosis); test: Ptosis, mouse; assay type: in vivo; conditions: mouse, po; passive ptosis; read-out: Ptosis MED
[6] = tested on: locomotor activity; test: Decreased Locomotor Activity (L.M.A.), mouse; assay type: in vivo; conditions: mouse, po; minimal effective dose; read-out: L.M.A. MED
Procedure: as §1, §2

[7] = tested on: eyelid closure (ptosis); test: Ptosis, rat; assay type: in vivo; conditions: rat, po; passive ptosis; read-out: Ptosis MED
Text: Degree of eyelid closure is used as a measure of central nervous system depression. An animal is removed from its observation cage and allowed to remain outside the cage for 30 seconds. At the end of this time a rating of degree of eyelid closure is made on an arbitrary scale.

[8] = tested on: phenyl-p-benzoquinone-induced writhing; test: Phenylquinone Writhing (P.Q.W.); assay type: in vivo, mouse; conditions: 0.5 h; mouse, po; phenyl-p-benzoquinone 2.5 mg/kg i.p. 30 minutes after compound; read-out: P.Q.W. ED50
[9] = tested on: TBZ-induced ptosis; test: Tetrabenazine Antagonism (T.B.Z.A.), rat; assay type: in vivo; conditions: 1 h; rat, po; TBZ 40 mg/kg s.c. one hour after compound; read-out: T.B.Z.A. ED50
Procedure: (§5) Tetrabenazine Antagonism (T.B.Z.A.)
(§6) The tetrabenazine (TBZ) antagonism test is used to test for potential antidepressant-like activity in rodents. One hour after oral administration of a test compound, a 40 mg/kg dose of TBZ is given subcutaneously. Thirty minutes after TBZ administration, the mice are placed in the center of a circle; the diameter of the circle is twice the body length of the mouse or rat. After 30 seconds, a reading is made of the degree of ptosis and whether the animal has moved out of the circle. Animals that have received only TBZ will show marked ptosis and immobility. Tricyclic antidepressants of the imipramine type will antagonize the ptosis but not the immobility. Antidepressants of the amphetamine or monoamine oxidase inhibitory type will antagonize both the ptosis and immobility induced by TBZ. The ED50 is the dose producing antagonism of TBZ-induced ptosis, but not of TBZ-induced immobility, in 50% of the animals.

[10] = tested on: fear / feeding in approach-avoidance conflict; test: Rat Conflict (Approach-Avoidance) Test; assay type: in vivo; conditions: rat, po; after 1 or 2 hours; read-out: Conflict MED
Procedure: Rat Conflict (Approach-Avoidance) Test (Conflict)
Results given in: mg/kg po/rat
Food deprived rats are trained to pass from one compartment to an adjacent one to obtain food. The training consists of 3 exposures to the test situation on day one of the experiment. The rats are given limited (1-2 hr) free access to food in their home cages on day one and are then food deprived for at least 18 hours. On day two of the experiment, the rats are given a control exposure to the test situation followed by a second exposure after one-half to 1 hour in which they are shocked after crossing and eating. Groups of 6-8 rats are then dosed orally with solvent or test compound and then re-exposed to the test situation after 1 or 2 hours.
Compounds showing minor tranquilizer (anxiolytic) activity in man such as diazepam and meprobamate produce an apparent decreased fear in the test animals so that they cross to obtain food despite having received a shock earlier. This effect is dose-related (and the MED is the minimum dose at which this effect is obtained); rats dosed with solvent only consistently show a high level of fear as evidenced by decreased mobility and absence of feeding when placed in the test situation after receiving a shock.

[11] = tested on: conditioned avoidance response; test: Conditioned Avoidance Response (C.A.R.), mouse; assay type: in vivo; conditions: mouse, po; block of C.A.R. in 50% of animals; 1, 2, and 4 hours; read-out: C.A.R. ED50
Procedure: as §3, §4

[12] = tested on: TBZ-induced ptosis; test: Tetrabenazine Antagonism (T.B.Z.A.), mouse; assay type: in vivo; conditions: 1 h; mouse, po; TBZ 40 mg/kg s.c. one hour after compound; read-out: T.B.Z.A. ED50
Procedure: as §5, §6

[13] = tested on: catalepsy; test: Catalepsy, rat; assay type: in vivo; conditions: rat, po; read-out: Catalepsy MED
Text: (§7) The ability of an animal to remain in an abnormal position is used as another indication of central nervous system depressant activity. A test animal is removed from its observation cage and positioned so that its hind legs are on the table top and its front legs rest on the side of the observation cage. If an animal maintains this position for at least 10 seconds, it is considered to be showing cataleptic behavior.

[14] = tested on: catalepsy; test: Catalepsy, mouse; assay type: in vivo; conditions: mouse, po; read-out: Catalepsy MED
Text: as §7

[15] = tested on: catalepsy; test: Catalepsy, comparison with chlorpromazine; assay type: in vivo; conditions: read-out: Catalepsy (*ED50?)
[16] = tested on: eyelid closure (ptosis); test: Ptosis, comparison with chlorpromazine; assay type: in vivo; conditions: read-out: Ptosis (*ED50?)
[17] = tested on: locomotor activity; test: LMA, comparison with chlorpromazine; assay type: in vivo; conditions: read-out: LMA (*ED50?)

| Structure (SMILES) | minimal effective dose [1] [mg/kg] | minimal effective dose [2] [mg/kg] | ED50 [3] [mg/kg] | ED50 [4] [mg/kg] | minimal effective dose [5] [mg/kg] | minimal effective dose [6] [mg/kg] | minimal effective dose [7] [mg/kg] | ED50 [8] [mg/kg] | ED50 [9] [mg/kg] | minimal effective dose [10] [mg/kg] | ED50 [11] [mg/kg] | ED50 [12] [mg/kg] | minimal effective dose [13] [mg/kg] | minimal effective dose [14] [mg/kg] | ED50 ([15]; species not given) [mg/kg] | ED50 ([16]; species not given) [mg/kg] | ED50 ([17]; species not given) [mg/kg] | ED50 [15] [mg/kg] | ED50 [16] [mg/kg] | ED50 [17] [mg/kg] |
| --- | --- | --- | --- | --- | --- | --- | --- | --- | --- | --- | --- | --- | --- | --- | --- | --- | --- | --- | --- | --- |
| c1ccc2c(c1)CCc1cccc3c1N2[C@@H]1CCN(CC2CC2)C[C@@H]31 (relative stereo) [Example 2, trans-3-(Cyclopropylmethyl)-1,2,3,4,4a,8,9,14a-octahydropyrido[4',3':2,3]indolo[1,7-ab][1]benzazepine] | 1 | 1 | 3 | 0.7 | 10 | 3 | 3 | 2.3 | > 100 | > 40 | 0.7 | > 100 | 3 | 3 | – | – | – | – | – | – |
| CC(C)CN1CC[C@@H]2[C@@H](C1)c1cccc3c1N2c1ccccc1CC3 (relative stereo) [Example 5, trans-1,2,3,4,4a,8,9,14a-Octahydro-3-isobutylpyrido[4',3':2,3]indolo[1,7-ab][1]benzazepine] | 4 | – | – | – | 8 | 2 | 5 | 1.75 | – | – | – | – | 6 | 2 | 6 | 5 | 4 | – | – | – |
| CN(C)CCCN1c2ccccc2Sc2ccc(Cl)cc21 [Chlorpromazine] | – | – | – | – | – | – | – | – | – | – | – | – | – | – | – | – | – | 6 | 6 | 5 |
